Laboratory results reported in patent publication US20190119200A1, “TERTIARY AMIDES AND METHOD OF USE” (AbbVie Inc., priority 2016, published 2019).

How the values were obtained:
[1] = test system: LPA-induced MCP-1 in NRK-49F cells; assay: LPA-induced MCP-1 AlphaLISA assay; type: cell-based; details: Rattus norvegicus, final LPA 10 μM, 7 hours
Procedure, shortened: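 NRK-49F rat fibroblasts, serum-starved overnight, pretreated with compound for 30 min at 37 °C (1% DMSO final), then stimulated with 10 μM LPA final. MCP-1 in the supernatant was measured by mouse/rat CCL2 AlphaLISA. IC50 values came from four-parameter logistic fits of the ratio data.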

[2] = test system: UUO mice (kidney fibrosis); assay: Mouse unilateral ureteral obstruction (UUO) kidney fibrosis model; type: in vivo; details: male CD-1 mice, 30 mg/kg po twice daily D-1 to D6, compared to vehicle treated UUO group
Procedure: All animal handling and experimental protocols were approved by AbbVie's Institutional Animal Care and Use Committee (IACUC) and were conducted in accordance with the ethical principles for pain-related animal research of the American Pain Society. Male CD-1 mice (28-30 g, Charles River) were group housed 10 per cage, housed in a temperature controlled room with a 12/12-hour day/night cycle, with food (2018 Tekland Global 18% protein rodent diet, Harlan®) and water available ad libitum. Mice underwent either complete unilateral ureter obstruction (UUO) or sham surgery to the left kidney. Briefly, animals were anesthetized with isoflurane, and the left ureter was visualized via a flank incision. Using 6-0 silk sutures, the ureter was tied off at two points near the renal pelvis and then completely cut between ligations (ligation step omitted for sham operated animals). The abdominal muscle was sutured and the skin closed using standard wound clips. Test compound or vehicle was delivered twice daily (30 mg/kg, po) via oral gavage, starting on the day before surgery (D-1) and continuing through day 6 after surgery (D6), at which time animals were sacrificed and kidney tissues collected. […] Statistical significance was determined by using a one-way analysis of variance (ANOVA) followed by a Bonferroni post-hoc test and was conducted using GraphPad prism.

**Q.** How did the IC50 [1] turn out when `COc1cc(OC)cc(C(=O)N(CCCCC(=O)O)CCCc2ccccc2)c1` [Example 7, 5-[(3,5-dimethoxybenzoyl)(3-phenylpropyl)amino]pentanoic Acid] was run?
**A.** 2630 nM

**Q.** And the Emax ([1]; read-out: Maximum Inhibition)?
**A.** 71%

**Q.** What about the “reduction in Col1a1 expression” value [2] of the same molecule?
**A.** −46%

**Q.** And the “reduction in tubulointerstitial fibrosis as measured by PSR” value [2]?
**A.** −53%
